Source: patent US20160106719A1, “Transplantation Adjuvant in Cell Therapy Using Neural Progenitor Cells” (SUMITOMO DAINIPPON PHARMA CO., LTD., priority 2013, published 2016)

Experiments:
[1] = system: re-aggregated PSA-NCAM+ cells (neural progenitor cells derived from mouse iPS cell line 440A3); test: In vitro differentiation of mouse iPS cell-derived neural progenitor cells into dopaminergic neurons (immunocytochemistry for marker molecules); format: cell-based
Procedure: DMEM contained 1% fetal bovine serum (FBS), 5% knockout serum replacement (KSR; manufactured by Invitrogen), 0.1 mM non-essential amino acids, 1 mM sodium pyruvate, 0.1 mM 2-mercaptoethanol (2-ME; manufactured by Invitrogen), 2000 U/ml leukemia inhibitory factor (manufactured by Invitrogen), and 1.5 μg/ml puromycin. In order to differentiate and induce the iPS cells into neural cells, serum-free floating culture of embryoid bodies-like aggregates (SFEB) was employed. Specifically, aggregates of the 440A3 cells were separated into individual cells by using 0.25% trypsin/1 mM EDTA (ethylenediaminetetraacetic acid), and the resultant cells were seeded in a 96-well low adhesion plate (product name: Lipidure-Coat Plate A-US96, manufactured by NOF Corporation) at a concentration (cell density) of 3000 cells/well. Thereafter, re-aggregation of the 440A3 cells was induced in a differentiation medium containing GMEM (Glasgow Minimum Essential Medium), 5% KSR, 0.1 mM non-essential amino acids, 1 mM sodium pyruvate and 0.1 mM 2-ME, and this day was defined as day 0 (FIG. 1). During this differentiation process, various factors were added to the differentiation medium for inducing midbrain dopaminergic phenotypes as illustrated in FIG. 1. Specifically, from day 3 to day 7 after starting the SFEB, 20 ng/ml of mouse FGF-8b (manufactured by R & D Systems) was added, from day 4 to day 7 after starting the SFEB, 10 ng/ml of recombinant mouse sonic hedgehog (C25I1) N-terminus (manufactured by R & D Systems) was added, and on and after day 7 after starting the SFEB, 1% N-2 supplement (manufactured by Gibco) and 200 nM ascorbic acid were added. The KSR was removed from the differentiation medium on day 7 after starting the SFEB.
On day 9 after starting the SFEB, the 440A3 cells were washed with phosphate buffered saline (PBS(-)) twice. Thereafter, the 440A3 cells were dissociated into single cells by five-minute incubation performed at 37° C. by using Accumax (manufactured by Innovate Cell Technologies, product name). The cells were collected with a FACS buffer. The FACS buffer was constituted by PBS(-) containing 2% FBS, 20 mM D-glucose and 1% penicillin/streptomycin (P/S, manufactured by Invitrogen). The collected cells were mechanically dissociated into a single cell suspension by a gentle pipetting operation.
Next, the resultant cells were incubated with a mouse anti-PSA-NCAM antibody (dilution rate of 1:200, manufactured by Millipore) at 4° C. for about 30 minutes. Thereafter, a washing operation using a centrifuge was performed twice, and the resultant cells were further incubated for 30 minutes with a secondary antibody of a donkey anti-mouse IgG (dilution rate of 1:400, manufactured by Invitrogen) labeled with AlexaFluor 594. Dead cells and cell debris were excluded by using 7-aminoactinomycin-D (7-AAD, manufactured by BD Pharmigen) stain. The remaining living cells were suspended again at a final concentration (cell density) of 1×10^7 cells/ml. Cell sorting was conducted by using a FACSAria II cell sorter (manufactured by Becton Dickinson And Company) equipped with a 488 nm argon laser, a 633 nm helium-neon laser, a 100 μm nozzle and a FACSDiva software program. A PSA-NCAM positive rate was determined on the basis of a negative control not using a primary antibody.
After the cell sorting, in order to induce the reaggregation of the cells, a PSA-NCAM^+ cell group was seeded in a DMEM/F12 medium (manufactured by Wako Pure Chemical Industries, Ltd.) in a 96-well plate at a concentration (cell density) of 20000 cells/well. The DMEM/F12 medium contained 1% N-2 supplement, 200 nM ascorbic acid, 2% B27 supplement (manufactured by Invitrogen), 0.5 mM L-glutamine and 1% P/S. In order to prevent apoptosis, a ROCK inhibitor, Y-27632 (manufactured by Wako Pure Chemical Industries, Ltd.), was used at a concentration of 30 μM during the cell sorting process and the following overnight cultivation. […]

[2] = system: TH+ neurons derived from mouse iPS cells; test: In vitro survival of TH+ neurons with caspase 3 expression as index of apoptosis; format: cell-based; conditions: control 18.0±5.9%; no significant difference among four groups
Procedure: After the cell sorting, in order to induce the reaggregation of the cells, a PSA-NCAM^+ cell group was seeded in a DMEM/F12 medium (manufactured by Wako Pure Chemical Industries, Ltd.) in a 96-well plate at a concentration (cell density) of 20000 cells/well. The DMEM/F12 medium contained 1% N-2 supplement, 200 nM ascorbic acid, 2% B27 supplement (manufactured by Invitrogen), 0.5 mM L-glutamine and 1% P/S. In order to prevent apoptosis, a ROCK inhibitor, Y-27632 (manufactured by Wako Pure Chemical Industries, Ltd.), was used at a concentration of 30 μM during the cell sorting process and the following overnight cultivation. On day 10 after starting the SFEB, any one of valproic acid (VPA) (manufactured by Sigma-Aldrich), zonisamide (ZNS) sodium salt (manufactured by Sumitomo Dainippon Pharma Co., Ltd.), 17β estradiol (E2) (manufactured by Sigma-Aldrich), a glial cell line derived neurotrophic factor (GDNF) (manufactured by R & D Systems) and PBS(-) was added to the medium for 4 days. Each of VPA, ZNS and E2 was used at three different concentrations. Specifically, the concentration of VPA was 0.01 mM, 0.1 mM or 1 mM, the concentration of ZNS was 1 μM, 10 μM or 100 μM, and the concentration of E2 was 1 nM, 10 nM or 100 nM. GDNF was added at a concentration of […] to be used as a positive control. […]

[3] = system: grafts derived from human iPS cells; test: Transplantation experiment of human iPS cell-derived dopamine neural progenitor cells into striatum of SCID rats (immunohistochemistry of grafts); format: in vivo; conditions: ZNS at a high dose i.p., four weeks after transplantation
Procedure: Twelve-week-old SCID rats (produced by Institute of Laboratory Animals, Graduate School of Medicine, Kyoto University) were handled in accordance with the Guidelines for Animal Experiments of Kyoto University. The SCID rats were anesthetized, and donor cells were transplanted by stereotaxic injection into striatums on both sides. Dopamine neural progenitor cells (2.7×10^5 cells on average) prepared from 1039A1 cell, that is, a human iPS cell line, were collected in 2 μl of PBS(-) so as to be used as the donor cells for the transplantation in each tract. To the PBS(-), […] was added at a final concentration of 30 μM. Thereafter, intraperitoneal injection of VPA (150 mg/kg/day or 600 mg/kg/day, which are sometimes designated respectively as a high dose and a low dose), ZNS sodium salt (30 mg/kg/day or 60 mg/kg/day, which are sometimes designated respectively as a high dose and a low dose), or a saline was conducted from two days before transplanting the donor cells until a day of necropsy. Four weeks after the transplantation of the donor cells, the brains of the SCID rats were washed and fixed by intracardially perfusing 4% paraformaldehyde under deep anesthesia. On the day of necropsy, a blood sample was collected from each SCID rat one hour after the final injection of the test compound, and the blood concentration of the drug (test compound) was measured.
In an in vitro experiment, a cell aggregate treated with any of the above-described test compounds on day 14 after starting the SFEB was fixed with 4% paraformaldehyde. Thereafter, the fixed cell aggregate was frozen and sliced into thin sections each having a thickness of 10 μM by using a microtome for immunocytochemistry. On the other hand, in an in vivo experiment (transplantation experiment), the brain of a SD rat or a SCID rat was taken out after the transplantation experiment to be fixed again with 4% paraformaldehyde for 2 days. […]

[4] = system: grafts derived from mouse iPS cells; test: Transplantation experiment of mouse iPS cell-derived dopamine neural progenitor cells into striatum of SD rats (immunohistochemistry of grafts); format: in vivo; conditions: four weeks after transplantation
Procedure: Ten-week-old Sprague-Dawley rats (SD rats, available from Shimizu Laboratory Supplies Co., Ltd.) were handled in accordance with the Guidelines for Animal Experiments of Kyoto University. Each SD rat was anesthetized, and donor cells were transplanted by stereotaxic injection into striatums on both sides. Two cell aggregates (containing 3.1×10^5 cells on average) obtained on day 9 after starting the SFEB were collected in 1 μl of PBS(-) so as to be used as the donor cells for the transplantation in each tract. To the PBS(-), Y-27632 was added at a final concentration of […]. Thereafter, intraperitoneal injection of VPA (150 mg/kg/day), ZNS sodium salt (30 mg/kg/day), E2 (80 μM/kg/day) or a saline was conducted from two days before transplanting the donor cells until a day of necropsy. For immunosuppression, cyclosporin A (CsA, manufactured by Wako Pure Chemical Industries, Ltd.) was administered to all the SD rats at a daily dose of 10 mg/kg. Four weeks after the transplantation of the donor cells, the brains of the SD rats were washed and fixed by intracardially perfusing 4% paraformaldehyde under deep anesthesia. On the day of necropsy, a blood sample was collected from each SD rat one hour after the final injection of the test compound or CsA. Such a sample was sent to SRL, Inc. (Tokyo, Japan) where the blood concentration of the administered drug (test compound) was measured.
In an in vitro experiment, a cell aggregate treated with any of the above-described test compounds on day 14 after starting the SFEB was fixed with 4% paraformaldehyde. Thereafter, the fixed cell aggregate was frozen and sliced into thin sections each having a thickness of 10 μM by using a microtome for immunocytochemistry. On the other hand, in an in vivo experiment (transplantation experiment), the brain of a SD rat or a SCID rat was taken out after the transplantation experiment to be fixed again with 4% paraformaldehyde for 2 days. Thereafter, the fixed brain of the SD rat or SCID rat was cryopreserved in 30% sucrose for 3 days, frozen, and sliced into thin sections each having a thickness of 40 μM for immunohistochemistry. The frozen sections of the sphere (spherical cell mass) and the brain were subjected to a permeabilization and blocking treatment in PBS(-) for 1 hour at room temperature to be used as samples. The PBS(-) contained 0.3% Triton-X and 2% donkey serum. Thereafter, each of the sections was incubated overnight together with a primary antibody at 4° C. Primary antibodies used in this example are a rabbit anti-tyrosine hydroxylase antibody (dilution rate of 1:400, TH; manufactured by Millipore), a mouse anti-TH antibody (dilution rate of 1:200, manufactured by Millipore), a sheep anti-TH antibody (dilution rate of 1:400, manufactured by Millipore), a mouse anti-Tubβ3 antibody (dilution rate of 1:1000, Tuj1; manufactured by Covance Inc.), a rat anti-NURR1 antibody (dilution rate of 1:1000, KAN Research Institute, Inc., Kobe, Japan), a rabbit anti-Ki67 antibody (dilution rate of 1:1000, manufactured by Novocastra: NCL-Ki67p), a rabbit anti-caspase 3 antibody (dilution rate of 1:500, manufactured by Santa Cruz Biotechnology, Inc.), a rat anti-M2M6 antibody (dilution rate of 1:50, manufactured by Developmental Study Hybridoma Bank), a mouse anti-Nestin antibody (dilution rate of 1:50; manufactured by Millipore), a rabbit anti-Pitx3 antibody (dilution rate of 1:500; manufactured by Chemicon International Inc.), a goat […] antibody (dilution rate of 1:500, Foxa2; manufactured by Santa Cruz Biotechnology, Inc.), a mouse anti-human Nuclei antibody (dilution rate of 1:1000; manufactured by Millipore), and a mouse anti-NeuN antibody (dilution rate of 1:500, manufactured by Chemicon International Inc.). After washing with PBS (0.05% Tween-20) three times, the resultant sample was incubated with an Alexa Fluor-conjugated secondary antibody for 1 hour at room temperature. […]

[5] = ddA or ICI singly added to cells, vs control

C[C@]12CC[C@@H]3c4ccc(O)cc4CC[C@H]3[C@@H]1CC[C@@H]2O [E2, 17β estradiol]
ratio of TH+ cells ([1]; E2 10 nM, day 10 to 14, control 5.2±1.1%): 12.2±2.3% | ratio of dopaminergic neurons undergoing apoptosis (TH+ neurons expressing caspase 3) [2]: low

C[C@]12CC[C@@H]3c4ccc(O)cc4C[C@@H](CCCCCCCCC[S+]([O-])CCCC(F)(F)C(F)(F)F)[C@H]3[C@@H]1CC[C@@H]2O (stereo partly drawn) [ICI, ICI182780]
ratios of increase in the TH+ cells ([1]; 2 μM ICI added to 10 nM E2): remarkably reduced | ratio of TH+ cells [1, 5]: not changed as compared with that of the control

NS(=O)(=O)Cc1noc2ccccc12 [ZNS, 1,2-benzisoxazole-3-methanesulfonamide]
ratio of TH+ cells that were FOXA2+ ([3]; control 76.3±9.7%): 91.8±6.2% | number of midbrain dopaminergic neurons (TH+ FOXA2+) in a graft ([3]; control 2297±1116 cells): 5889±1821 cells | number of TH+ cells in a graft ([3]; control 3026±1349 cells): 6480±2145 cells | ratio of the differentiation of the transplanted NPC into neurons (NeuN+) ([4]; ZNS sodium salt 30 mg/kg/day i.p., vs control): almost equivalent to that of a control | ratio of TH+ cells that were FOXA2+ ([4]; VPA 150 mg/kg/day or ZNS 30 mg/kg/day i.p., control 24.7±9.3%): 80.4±21.1% | number of midbrain dopaminergic neurons (TH+ FOXA2+) in a graft ([4]; VPA 150 mg/kg/day or ZNS 30 mg/kg/day i.p., control 97±76 cells): 835±540 cells

C[C@H]1O[C@@H](n2cnc3c(N)ncnc32)C[C@@H]1O [ddA, 2,5-dideoxyadenosine]
ratios of increase in the TH+ cells ([1]; 100 μM ddA added to 0.1 mM VPA): remarkably reduced | ratio of TH+ cells [1, 5]: not changed as compared with that of the control
